Measured values: the kinase profiling compilation of Christmann-Franck et al. (2016)

Columns and labels:
Test in all cases: radiometric filter-binding kinase assay, Kinase HotSpot
Details in all cases: compound 0.5 µM; ATP 10 µM
NEK11 (human) = NEK11 (human) (UniProt Q8NG66)
EPHB3 (human) = EPHB3 (human) (UniProt P54753)
CDK4 CCND3 (human) = CDK4 CCND3 (human) (UniProt P30281+P11802)
GRK4 (human) = GRK4 (human) (UniProt P32298)
RPS6KA3 KD1 KD2 (human) = RPS6KA3 KD1 KD2 (human) (UniProt P51812)
TBK1 (human) = TBK1 (human) (UniProt Q9UHD2)
MET (human) = MET (human) (UniProt P08581)
PRKCE (human) = PRKCE (human) (UniProt Q02156)
PRKCE (human), sequence (Q02156 whole entry, looked up): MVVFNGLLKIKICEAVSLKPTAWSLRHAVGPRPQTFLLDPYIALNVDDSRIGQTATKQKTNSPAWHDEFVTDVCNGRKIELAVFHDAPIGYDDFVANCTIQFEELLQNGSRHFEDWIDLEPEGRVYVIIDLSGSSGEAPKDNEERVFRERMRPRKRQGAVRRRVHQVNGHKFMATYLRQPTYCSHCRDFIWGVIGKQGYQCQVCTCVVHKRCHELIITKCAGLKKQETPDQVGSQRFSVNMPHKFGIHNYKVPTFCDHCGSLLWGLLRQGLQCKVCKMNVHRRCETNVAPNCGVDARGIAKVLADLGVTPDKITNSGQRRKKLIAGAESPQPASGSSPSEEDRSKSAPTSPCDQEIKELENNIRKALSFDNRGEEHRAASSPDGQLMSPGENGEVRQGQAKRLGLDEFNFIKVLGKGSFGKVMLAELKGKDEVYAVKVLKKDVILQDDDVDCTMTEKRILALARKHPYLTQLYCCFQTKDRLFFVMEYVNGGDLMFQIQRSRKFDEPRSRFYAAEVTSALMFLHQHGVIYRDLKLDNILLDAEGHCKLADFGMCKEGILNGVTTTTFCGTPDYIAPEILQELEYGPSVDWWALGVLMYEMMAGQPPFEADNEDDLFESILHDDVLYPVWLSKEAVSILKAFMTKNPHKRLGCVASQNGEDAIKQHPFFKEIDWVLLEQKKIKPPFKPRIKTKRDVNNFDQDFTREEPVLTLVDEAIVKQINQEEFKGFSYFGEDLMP

EPHA2 (human) = EPHA2 (human) (UniProt P29317)
MAPKAPK3 (human) = MAPKAPK3 (human) (UniProt Q16644)
ERBB2 (human) = ERBB2 (human) (UniProt P04626)
ACVRL1 (human) = ACVRL1 (human) (UniProt P37023)
CDK2 CCNA2 (human) = CDK2 CCNA2 (human) (UniProt P24941+P20248)
EPHA1 (human) = EPHA1 (human) (UniProt P21709)
NTRK1 (human) = NTRK1 (human) (UniProt P04629)
CSNK2A2 (human) = CSNK2A2 (human) (UniProt P19784)
SRMS (human) = SRMS (human) (UniProt Q9H3Y6)
RPS6KA4 KD2 (human) = RPS6KA4 KD2 (human) (UniProt O75676)
RPS6KA4 KD2 (human), sequence (O75676 whole entry, looked up): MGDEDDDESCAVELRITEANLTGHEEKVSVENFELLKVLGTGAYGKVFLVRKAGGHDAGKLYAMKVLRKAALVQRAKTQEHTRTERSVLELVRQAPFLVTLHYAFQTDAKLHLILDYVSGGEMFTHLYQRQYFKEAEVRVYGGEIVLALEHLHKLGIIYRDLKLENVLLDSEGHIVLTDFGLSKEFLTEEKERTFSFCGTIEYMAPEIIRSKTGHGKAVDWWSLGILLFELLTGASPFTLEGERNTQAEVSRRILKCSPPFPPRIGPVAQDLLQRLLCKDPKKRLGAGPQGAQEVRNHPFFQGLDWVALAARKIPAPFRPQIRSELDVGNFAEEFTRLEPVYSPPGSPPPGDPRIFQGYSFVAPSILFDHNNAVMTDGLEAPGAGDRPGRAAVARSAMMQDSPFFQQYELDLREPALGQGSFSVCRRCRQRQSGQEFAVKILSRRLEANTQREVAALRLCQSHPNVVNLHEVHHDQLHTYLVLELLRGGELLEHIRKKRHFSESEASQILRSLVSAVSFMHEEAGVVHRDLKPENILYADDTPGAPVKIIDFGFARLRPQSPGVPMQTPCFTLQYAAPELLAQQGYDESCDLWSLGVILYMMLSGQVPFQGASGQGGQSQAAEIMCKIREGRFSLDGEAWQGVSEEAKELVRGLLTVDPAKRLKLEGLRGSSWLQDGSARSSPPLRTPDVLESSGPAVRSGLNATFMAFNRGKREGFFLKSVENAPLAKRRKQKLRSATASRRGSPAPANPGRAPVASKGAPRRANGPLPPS

VRK1 (human) = VRK1 (human) (UniProt Q99986)
HCK (human) = HCK (human) (UniProt P08631)
ULK1 (human) = ULK1 (human) (UniProt O75385)
PKN2 (human) = PKN2 (human) (UniProt Q16513)
PKN2 (human), sequence (Q16513 whole entry, looked up): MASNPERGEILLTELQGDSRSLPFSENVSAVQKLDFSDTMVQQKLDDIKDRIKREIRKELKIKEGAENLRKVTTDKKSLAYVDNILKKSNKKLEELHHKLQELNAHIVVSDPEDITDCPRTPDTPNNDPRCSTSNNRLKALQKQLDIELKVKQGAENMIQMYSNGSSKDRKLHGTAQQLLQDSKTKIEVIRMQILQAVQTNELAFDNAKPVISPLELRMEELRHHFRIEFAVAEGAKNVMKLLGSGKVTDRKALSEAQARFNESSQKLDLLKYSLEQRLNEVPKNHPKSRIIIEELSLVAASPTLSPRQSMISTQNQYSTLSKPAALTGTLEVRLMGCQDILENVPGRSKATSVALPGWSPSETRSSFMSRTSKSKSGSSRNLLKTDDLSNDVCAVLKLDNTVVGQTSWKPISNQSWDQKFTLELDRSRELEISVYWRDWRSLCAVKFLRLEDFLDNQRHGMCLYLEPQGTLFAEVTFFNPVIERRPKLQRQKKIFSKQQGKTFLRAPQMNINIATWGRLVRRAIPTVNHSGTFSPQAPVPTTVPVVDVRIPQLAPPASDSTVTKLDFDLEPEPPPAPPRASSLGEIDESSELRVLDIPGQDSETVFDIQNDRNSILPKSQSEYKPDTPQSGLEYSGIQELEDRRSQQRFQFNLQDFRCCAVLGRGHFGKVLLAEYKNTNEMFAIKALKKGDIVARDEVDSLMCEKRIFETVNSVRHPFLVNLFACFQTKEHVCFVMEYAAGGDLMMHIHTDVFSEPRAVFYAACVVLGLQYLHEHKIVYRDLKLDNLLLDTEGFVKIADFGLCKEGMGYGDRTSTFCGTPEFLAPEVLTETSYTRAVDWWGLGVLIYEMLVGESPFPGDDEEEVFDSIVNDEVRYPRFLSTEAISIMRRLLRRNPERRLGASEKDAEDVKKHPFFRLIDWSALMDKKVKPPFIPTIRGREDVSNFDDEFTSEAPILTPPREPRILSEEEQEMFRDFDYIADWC

SRPK2 (human) = SRPK2 (human) (UniProt P78362)
CDK1 CCNB1 (human) = CDK1 CCNB1 (human) (UniProt P06493+P14635)
HIPK2 (human) = HIPK2 (human) (UniProt Q9H2X6)
GRK6 (human) = GRK6 (human) (UniProt P43250)
MAP3K9 (human) = MAP3K9 (human) (UniProt P80192)
NUAK2 (human) = NUAK2 (human) (UniProt Q9H093)
NUAK2 (human), sequence (Q9H093 whole entry, looked up): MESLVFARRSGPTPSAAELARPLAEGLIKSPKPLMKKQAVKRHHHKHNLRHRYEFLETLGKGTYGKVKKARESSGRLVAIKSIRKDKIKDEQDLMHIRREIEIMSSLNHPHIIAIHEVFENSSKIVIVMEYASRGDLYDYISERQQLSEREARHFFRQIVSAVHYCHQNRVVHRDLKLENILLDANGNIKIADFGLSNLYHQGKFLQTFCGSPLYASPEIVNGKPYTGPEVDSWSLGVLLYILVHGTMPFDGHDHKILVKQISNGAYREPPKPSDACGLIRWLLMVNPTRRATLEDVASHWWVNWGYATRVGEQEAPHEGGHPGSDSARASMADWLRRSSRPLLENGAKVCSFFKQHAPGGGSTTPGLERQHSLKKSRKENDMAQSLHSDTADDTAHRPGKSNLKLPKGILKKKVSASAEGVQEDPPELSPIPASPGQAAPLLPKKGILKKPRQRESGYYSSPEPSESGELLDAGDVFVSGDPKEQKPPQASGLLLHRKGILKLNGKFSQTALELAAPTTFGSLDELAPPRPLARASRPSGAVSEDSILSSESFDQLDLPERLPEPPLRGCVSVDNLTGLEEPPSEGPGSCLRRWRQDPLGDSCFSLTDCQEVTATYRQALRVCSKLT

AURKA (human) = AURKA (human) (UniProt O14965)
[1] = tested on: FLT4 (human), P35916 [Q890H]
RPS6KB2 (human) = RPS6KB2 (human) (UniProt Q9UBS0)
RPS6KB2 (human), sequence (Q9UBS0 whole entry, looked up): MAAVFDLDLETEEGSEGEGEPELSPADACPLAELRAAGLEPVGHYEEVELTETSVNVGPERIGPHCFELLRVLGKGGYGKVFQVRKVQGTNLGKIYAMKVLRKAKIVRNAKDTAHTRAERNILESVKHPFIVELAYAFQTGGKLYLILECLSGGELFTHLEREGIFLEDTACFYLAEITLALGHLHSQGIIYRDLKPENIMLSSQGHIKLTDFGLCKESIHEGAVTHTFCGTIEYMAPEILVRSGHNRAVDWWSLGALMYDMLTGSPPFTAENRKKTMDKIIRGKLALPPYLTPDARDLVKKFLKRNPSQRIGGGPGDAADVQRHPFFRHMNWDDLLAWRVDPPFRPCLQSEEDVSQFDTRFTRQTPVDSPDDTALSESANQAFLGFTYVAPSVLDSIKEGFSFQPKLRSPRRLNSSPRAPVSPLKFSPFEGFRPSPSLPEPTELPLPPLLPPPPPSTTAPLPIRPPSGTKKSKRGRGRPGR

WEE1 (human) = WEE1 (human) (UniProt P30291)
WEE1 (human), sequence (P30291 whole entry, looked up): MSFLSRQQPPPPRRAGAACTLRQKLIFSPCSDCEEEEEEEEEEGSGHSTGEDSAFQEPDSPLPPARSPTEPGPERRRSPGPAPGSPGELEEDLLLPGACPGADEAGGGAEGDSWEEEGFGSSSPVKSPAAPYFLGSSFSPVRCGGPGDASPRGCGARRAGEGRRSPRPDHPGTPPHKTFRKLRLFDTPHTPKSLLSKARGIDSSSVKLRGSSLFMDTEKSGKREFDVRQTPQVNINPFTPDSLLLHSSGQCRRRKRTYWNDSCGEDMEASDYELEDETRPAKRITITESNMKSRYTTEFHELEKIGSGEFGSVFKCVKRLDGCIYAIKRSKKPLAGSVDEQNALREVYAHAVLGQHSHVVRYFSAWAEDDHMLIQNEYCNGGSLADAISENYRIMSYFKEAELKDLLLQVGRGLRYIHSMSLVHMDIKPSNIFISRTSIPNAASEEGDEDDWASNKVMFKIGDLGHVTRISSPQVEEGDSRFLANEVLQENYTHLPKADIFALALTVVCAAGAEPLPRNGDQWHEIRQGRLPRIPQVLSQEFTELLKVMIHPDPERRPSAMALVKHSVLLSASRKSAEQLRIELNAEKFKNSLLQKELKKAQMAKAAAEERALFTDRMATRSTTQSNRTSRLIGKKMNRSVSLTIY

CDK5 CDK5R1 p25 (human) = CDK5 CDK5R1 p25 (human) (UniProt Q00535+Q15078)
PNCK (human) = PNCK (human) (UniProt Q6P2M8)
PIM1 (human) = PIM1 (human) (UniProt P11309)
FGFR4 (human) = FGFR4 (human) (UniProt P22455)
ULK2 (human) = ULK2 (human) (UniProt Q8IYT8)
ROS1 (human) = ROS1 (human) (UniProt P08922)
WNK2 (human) = WNK2 (human) (UniProt Q9Y3S1)
CLK4 (human) = CLK4 (human) (UniProt Q9HAZ1)
CSNK2A1 (human) = CSNK2A1 (human) (UniProt P68400)

NEK11 (human), sequence (Q8NG66 whole entry, looked up): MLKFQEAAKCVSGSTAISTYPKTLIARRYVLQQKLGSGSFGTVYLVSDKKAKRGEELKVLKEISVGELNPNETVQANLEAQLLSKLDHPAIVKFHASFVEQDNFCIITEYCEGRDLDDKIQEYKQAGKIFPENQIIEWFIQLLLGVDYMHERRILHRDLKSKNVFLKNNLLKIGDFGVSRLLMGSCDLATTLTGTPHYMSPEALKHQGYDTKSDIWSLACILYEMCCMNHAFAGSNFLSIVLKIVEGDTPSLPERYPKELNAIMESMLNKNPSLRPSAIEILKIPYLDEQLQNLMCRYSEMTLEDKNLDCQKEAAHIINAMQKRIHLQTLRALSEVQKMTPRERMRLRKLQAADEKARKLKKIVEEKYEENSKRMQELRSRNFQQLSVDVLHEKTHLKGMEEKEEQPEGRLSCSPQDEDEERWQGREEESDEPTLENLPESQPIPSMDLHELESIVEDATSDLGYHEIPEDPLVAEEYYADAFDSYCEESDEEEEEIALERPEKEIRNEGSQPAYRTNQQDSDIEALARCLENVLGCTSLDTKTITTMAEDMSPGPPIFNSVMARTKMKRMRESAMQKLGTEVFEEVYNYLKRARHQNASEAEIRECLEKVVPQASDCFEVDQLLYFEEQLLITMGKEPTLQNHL

CC(C)(C)c1cc(C=C(C#N)C#N)cc(Br)c1O
residual activity (NEK11 (human)): 87% | residual activity (EPHB3 (human)): 107% | residual activity (CDK4 CCND3 (human)): 96.5% | residual activity (GRK4 (human)): 101% | residual activity (RPS6KA3 KD1 KD2 (human)): 92.2% | residual activity (TBK1 (human)): 90.2% | residual activity (MET (human)): 111% | residual activity (PRKCE (human)): 108% | residual activity (EPHA2 (human)): 105% | residual activity (MAPKAPK3 (human)): 103% | residual activity (ERBB2 (human)): 95.7% | residual activity (ACVRL1 (human)): 105% | residual activity (CDK2 CCNA2 (human)): 90.7% | residual activity (EPHA1 (human)): 85.1% | residual activity (NTRK1 (human)): 100% | residual activity (CSNK2A2 (human)): 94.5% | residual activity (SRMS (human)): 98.4% | residual activity (RPS6KA4 KD2 (human)): 90.9% | residual activity (VRK1 (human)): 86.4% | residual activity (HCK (human)): 66.1% | residual activity (ULK1 (human)): 88.2% | residual activity (PKN2 (human)): 64.3% | residual activity (SRPK2 (human)): 109% | residual activity (CDK1 CCNB1 (human)): 72.6% | residual activity (HIPK2 (human)): 110% | residual activity (GRK6 (human)): 94.6% | residual activity (MAP3K9 (human)): 90.2% | residual activity (NUAK2 (human)): 99.6% | residual activity (AURKA (human)): 89.8% | residual activity [1]: 102% | residual activity (RPS6KB2 (human)): 102% | residual activity (WEE1 (human)): 90.9% | residual activity (CDK5 CDK5R1 p25 (human)): 98.2% | residual activity (PNCK (human)): 107% | residual activity (PIM1 (human)): 94.7% | residual activity (FGFR4 (human)): 98% | residual activity (ULK2 (human)): 103% | residual activity (ROS1 (human)): 93.2% | residual activity (WNK2 (human)): 126% | residual activity (CLK4 (human)): 88.6% | residual activity (CSNK2A1 (human)): 99.3%

COc1ccc(S(=O)(=O)N(CCO)c2ccccc2CN(C)C/C=C/c2ccc(Cl)cc2)cc1
residual activity (NEK11 (human)): 105% | residual activity (EPHB3 (human)): 92.8% | residual activity (CDK4 CCND3 (human)): 94.1% | residual activity (GRK4 (human)): 94% | residual activity (RPS6KA3 KD1 KD2 (human)): 98% | residual activity (TBK1 (human)): 97.1% | residual activity (MET (human)): 98.2% | residual activity (PRKCE (human)): 97.2% | residual activity (EPHA2 (human)): 104% | residual activity (MAPKAPK3 (human)): 101% | residual activity (ERBB2 (human)): 97.8% | residual activity (ACVRL1 (human)): 98.4% | residual activity (CDK2 CCNA2 (human)): 99.7% | residual activity (EPHA1 (human)): 101% | residual activity (NTRK1 (human)): 110% | residual activity (CSNK2A2 (human)): 93.7% | residual activity (SRMS (human)): 101% | residual activity (RPS6KA4 KD2 (human)): 107% | residual activity (VRK1 (human)): 96.4% | residual activity (HCK (human)): 97.8% | residual activity (ULK1 (human)): 99.7% | residual activity (PKN2 (human)): 101% | residual activity (SRPK2 (human)): 98.5% | residual activity (CDK1 CCNB1 (human)): 105% | residual activity (HIPK2 (human)): 107% | residual activity (GRK6 (human)): 106% | residual activity (MAP3K9 (human)): 102% | residual activity (NUAK2 (human)): 113% | residual activity (AURKA (human)): 97.5% | residual activity [1]: 91% | residual activity (RPS6KB2 (human)): 97.1% | residual activity (WEE1 (human)): 96% | residual activity (CDK5 CDK5R1 p25 (human)): 97.7% | residual activity (PNCK (human)): 99.8% | residual activity (PIM1 (human)): 104% | residual activity (FGFR4 (human)): 98.3% | residual activity (ULK2 (human)): 102% | residual activity (ROS1 (human)): 95.4% | residual activity (WNK2 (human)): 97.1% | residual activity (CLK4 (human)): 96% | residual activity (CSNK2A1 (human)): 99.5%
